These are literature values, as cited in article PMC9305358 (The Journal of Biological Chemistry, 2022).

Where two headings read alike, the source gives them in different places.

Data set [1] deals with ClpC1 NTD. As to conditions: crystal structure pdb6PBS, ref [25]; cited from earlier work.
Data set [2] relates to ClpC1. As to conditions: cited from earlier work.
Data set [3] has as its system Mtb cells. As to conditions: ref [19], [20], [21], [22]; cited from earlier work.

With ecumicin, in data set [1], the “binding stoichiometry/mode at ClpC1 NTD” value is on record as “two ecumicin peptides bind to the NTD”. The “effect on ClpC1 ATPase activity” value in data set [2] (ref [20], [21]) is recorded as “increase ClpC1 ATPase activity”. Besides, the “toxicity to Mtb cells” value in data set [3] is listed as “highly toxic to Mtb cells”.
Consider lassomycin, for which the “effect on ClpC1 ATPase activity” value in data set [2] (ref [20], [21]) is reported as “increase ClpC1 ATPase activity”. In addition, the “toxicity to Mtb cells” value in data set [3] was “highly toxic to Mtb cells”.
As to rufomycin, in data set [2] (ref [22]), the “effect on ClpC1 ATPase activity” value is given as “shows no impact”. Further, the “toxicity to Mtb cells” value in data set [3] is given as “highly toxic to Mtb cells”.
